In patent US4156016A, “Indole compounds and process for their preparation” (Hoffmann-La Roche Inc., priority 1977, dated 1979):

Key:
[1] = tested on: arachidonic acid induced diarrhea; experiment: Arachidonic acid diarrhea prevention (mice); format: in vivo, Carworth Farm CF-1 male mice
Method: Carworth Farm CF-1 male mice weighing 18-20 grams were administered the test compound by either the oral or intraperitoneal route one hour prior to the intraperitoneal administration of 4 mg/kg of arachidonic acid (Hoffmann-La Roche Inc.). […] The diarrhea was graded on paper towels as follows: 0=solid pellet or no bowel movement; 1=slightly soft pellet with little or no wet ring formation; 2=moderately soft pellet with definite wet ring formation; 3=soft pellet with large wet ring formation; and 4=amorphous pellet with very large wet ring formation.
The calculation of the ED50 was made according to the method of Miller et al., Proc. Soc.

serum PGF2α = experiment: Inhibition of prostaglandin formation: serum PGF2α by radioimmunoassay (rats); format: in vivo, male rats; conditions: rats; for serum PGF2α ED50: 60 min; for ED50: Rattus norvegicus, 1 h
[2] = tested on: Collagen-Induced Platelet Aggregation; experiment: Inhibition of collagen-induced platelet aggregation in human platelet-rich plasma; format: cell-based
Method: (§1) Venous blood was collected from human volunteers in siliconized 20 ml. […] Platelet rich plasma (PRP) was separated from the red blood cells by centrifugation at 180×g for 15 minutes at room temperature. Platelet poor plasma (PPP) was prepared by centrifuging PRP at 1000×g for 2 minutes.
(§2) Techniques established by Born et al., J. Physiol. […] PRP (1 ml.) was added to a siliconized cuvette containing a siliconized stirring bar and placed in a densitometer maintained at 37° C. and stirred at 1000 RPM. Various concentrations of test compounds were added in 50 μl of saline and incubated with PRP for 5 minutes. Aggregation was initiated by the addition of sufficient concentrations of ADP (Sigma Chemical Co.), epinephrine HCl (Parke, Davis & Co., Detroit, Michigan), or human mammary gland collagen (obtained from Roosevelt Hospital, N.Y.) to give about 60% of maximum aggregation response. The light transmission through PPP was used to determine maximum response. The percent inhibition of aggregation caused by the drug was calculated from the strip chart recordings at the point of maximum collagen response.

ADP induced aggregation = experiment: Inhibition of ADP-induced platelet aggregation (second wave) in human platelet-rich plasma; format: cell-based; conditions: incubation in human citrated platelet-rich plasma
Method: as §1, §2

[3] = tested on: Epinephrine induced aggregation; experiment: Inhibition of epinephrine-induced platelet aggregation (second wave) in human platelet-rich plasma; format: cell-based; conditions: incubation in human citrated platelet-rich plasma
Method: as §1, §2

[4] = tested on: Collagen-Induced Platelet Aggregation; experiment: Effect of compounds in whole blood: collagen-induced platelet aggregation after incubation in whole blood; format: cell-based, human; conditions: incubation in whole blood
Method: Aliquots of citrated human blood (10 ml.) were exposed to different concentrations of the "nitrile" by mechanically shaking at room temperature for 5 minutes.

Acute toxicity in mice = conditions: mouse, in vivo
Method: CF-IS mice of both sexes weighing 17-25 grams were used. The compounds were ground in a mortar and suspended in 5% gum acacia for oral or intraperitoneal administration. Eight to ten mice were used per dose level. […] The LD50 was calculated by the method of Miller et al., Proc. Soc. Exp. Biol. Med., 57, pages 261-264 (1944).

[5] = Gastric ulcer induction (rats); design: species or system male Wistar rats; conditions: rat, in vivo, po, rats; read-out: Ulcer incidence ED50
Method: The test is a modification of that described by Brodie et al., Gastroenterology, 53, pages 604-610 (1967). Male Wistar rats (Royal Hart Laboratories) were deprived of food for 18 hours prior to testing. Tap water was permitted ad libitum. Test compounds were administered orally four hours to autopsy. The rats were sacrificed under ethyl ether anesthesia, opened along the ventral midline and the stomachs removed. The stomach was divided along the lesser curvature, everted, rinsed in saline, and examined for the presence of focal hemorrhage. Ulcers were rated on an all or none basis for incidence and, in addition, each stomach is graded for severity of ulcers formed. Ulcer scores: 0=none, 1=trace, 2=mild, 3=moderate, and 4=severe. The results of the ulcer scores obtained were subjected to statistical analysis by the student `t` test.

[6] = tested on: biosynthesis of thromboxanes; conditions: cited from earlier work
[7] = tested on: platelet prostaglandin formation; conditions: cited from earlier work
platelet aggregation = conditions: cited from earlier work
thromboxanes = conditions: submicrogram concentrations of PGE2; cited from earlier work
[8] = tested on: human blood-platelet aggregation; experiment: Inhibition of human blood-platelet aggregation (general statement)
prostaglandin formation = experiment: Inhibition of prostaglandin formation (general statement)
[9] = Ulcerogenicity (general statement)
[10] = Toxicity (general statement)
[11] = incubation in human citrated platelet-rich plasma, read-out: IC50 collagen

CC(=O)Oc1ccccc1C(=O)O [Aspirin, reference compound]
arachidonic acid induced diarrhea ED50 ([1]; p.o.): 1.3 mg/kg | serum PGF2α ED50 (serum PGF2α; i.p.): 10 mg/kg | serum PGF2α ED50 (serum PGF2α; p.o.): 10 mg/kg | IC50 [2, 11]: 30000 nM | IC50 (ADP induced aggregation): 30000 nM | IC50 [3]: 17000 nM | IC50 [4]: 1500 nM | LD50 at 120 h (Acute toxicity in mice; po): > 1000 mg/kg | TD50 at 4 h [5]: 49 mg/kg | inhibition of the biosynthesis of thromboxanes (in words) [6]: inhibits the biosynthesis of thromboxanes | inhibition of platelet prostaglandin formation (in words) [7]: known inhibitors of platelet prostaglandin formation

CCCCC[C@H](O)/C=C/[C@H]1[C@H](O)CC(=O)[C@H]1CCCCCCC(=O)O [Example 8-iso-PGE1, (8β,11α,13E,15S)-11,15-dihydroxy-9-oxoprost-13-en-1-oic acid]
inhibition of platelet aggregation (in words) (platelet aggregation): demonstrated to inhibit platelet aggregation

COc1ccc2c(c1)c(CC(=O)O)c(C)n2C(=O)c1ccc(Cl)cc1 [Indomethacin, reference compound]
ED50 ([1]; Mus musculus, po): 0.8 mg/kg | ED50 (serum PGF2α; ip): < 1 mg/kg | ED50 (serum PGF2α; po): 1 mg/kg | IC50 [2, 11]: 1000 nM | IC50 (ADP induced aggregation): 100 nM | IC50 [3]: 2000 nM | IC50 ([4]; Homo sapiens, Platelet): 400 nM | LD50 at 120 h (Acute toxicity in mice; ip): 193 mg/kg | LD50 at 120 h (Acute toxicity in mice; po): 430 mg/kg | TD50 at 4 h [5]: 3 mg/kg | inhibition of platelet prostaglandin formation (in words) [7]: known inhibitors of platelet prostaglandin formation

CCCCC[C@H](O)/C=C/[C@H]1[C@H](O)CC(=O)[C@@H]1CCCCCCC(=O)O [PGE1, (11,13E,15S)-11,15-dihydroxy-9-oxoprost-13-en-1-oic acid]
inhibition of platelet aggregation (in words) (platelet aggregation): demonstrated to inhibit platelet aggregation

CCCCC[C@H](O)/C=C/[C@H]1[C@H](O)CC(=O)[C@@H]1C/C=C\CCCC(=O)O [PGE2]
potentiation of biological effects of thromboxanes (thromboxanes): ≤ 700%

NC(=O)c1[nH]c2ccc(C(O)(C(F)(F)F)C(F)(F)F)cc2c1-c1ccccc1 [amide, 3-Phenyl-5-[2,2,2-trifluoro-1-hydroxy-1-(trifluoromethyl)ethyl]indole-2-carboxamide]
IC50 ([2]; Homo sapiens, Platelet, Table 7, read-out: Inhibition of collagen-induced platelet aggregation, Activity IC50): 3000 nM | inhibition of human blood-platelet aggregation (in words) [8]: inhibit prostaglandin formation and human blood-platelet aggregation | inhibition of prostaglandin formation (in words) (prostaglandin formation): inhibit prostaglandin formation | ulcerogenicity (in words) [9]: non-ulcerogenic | toxicity (in words) [10]: low in toxicity

CCCCCC[C@H](O)/C=C/[C@H]1[C@H](O)CC(=O)[C@@H]1CCCCCCC(=O)O [ω-homo PGE1, (11α,13E,15S)-11,15-dihydroxy-20-methyl-9-oxoprost-13-en-1-oic acid]
inhibition of platelet aggregation (in words) (platelet aggregation): demonstrated to inhibit platelet aggregation
